Tested on: mice
Assay: In vivo animal experiment: protein expression level after intramuscular administration of mRNA lipid nanoparticles (IVIS luminescence)
Conditions: intramuscular left hind leg, 1.25 μg mRNA/mouse, time point of the value not stated
Experimental: An experiment was carried out in mice in order to evaluate lipid nanoparticles encapsulating an mRNA. By injecting mice with a solution including lipid nanoparticles to transfect the mice and measuring the amount of a predetermined protein produced, the performance of the lipid nanoparticles used can be evaluated. Hereinafter, the procedure of the experiment will be shown.
By using lipids (Ib), (Ik), and (II) of Examples 2, 11, and 12, lipid nanoparticle-containing solutions for the in vivo animal experiment were prepared. […]
50 μL (1.25 μg/mouse, in terms of amount of mRNA) of the solution for administration was intramuscularly administered to the left hind leg of mice. […] 10 Minutes after administration of the luciferin solution, the amount of luminescence at a predetermined time after administration was measured under isoflurane anesthesia with an in vivo imaging system (manufactured by Xenogen, IVIS) to calculate the protein expression level.

CCCCCCCC/C=C\CCCCCCCCC(CCCCCCC/C=C\CCCCCCCC)OC(=O)C(CCC(=O)O)NC(=O)C(N)CCCNC(=N)N (centres unmarked) [Example 2, 4-(2-amino-5-guanidinopentanamido)-5-(((9Z,27Z)-hexatriaconta-9,27-dien-18-yl)oxy)-5-oxopentanoic acid]
Protein expression level (PEG-modified lipid (PEG2000-DMG 1.5 mol %) present): 130,000 | Protein expression level (PEG-modified lipid absent): 13,000

From US20240148664A1, “LIPID AND COMPOSITION” (SOGO PHARMACEUTICAL CO., LTD., priority 2021, published 2024)
